Experimental data reported in patent US20170107254A1, “Modified Antimicrobial Peptides” (priority 2014, published 2017).
≈ marks a conversion by molar mass, not a printed value. Like-named read-outs stand apart in the source and are kept apart here.

Assays:
in vitro = conditions: human, A549 cells
Description: The cell lines A549 (Human Lung Adenocarcinoma Epithelial Cell Line) and HepG2 (Human Hepatocellular Carcinoma Cell Line) were purchased from ATCC. A549 cells were maintained in F-12K medium (Gibco) containing 10% foetal bovine serum (Life Technologies) and 1% penicillin/streptomycin (Life Technologies) and HepG2 cells were maintained in Dulbecco's modified eagles medium (Gibco) containing 10% foetal bovine serum (Life Technologies), penicillin/streptomycin (Life Technologies) and 1% 0.01 mg/ml human transferrin (Sigma). Both were incubated at 37° C. with 5% CO2 until cells reached >80% confluence before splitting or experimental use.
Before exposure to peptides, the plate was incubated at 37° C. with 5% CO2 overnight to allow cells adhere. […] Medium was removed from the plate containing cells and peptide dilutions were transferred to cells and incubated for a further 3 h at 37° C. with 5% CO2. Cytotoxicity was determined by LIVE/DEAD® Viability/Cytotoxicity kit (Invitrogen Life Technologies), a working solution of 2 μM calcein AM and 4 μM EthD-1 and in conjunction Alamar Blue at a final concentration of 10% was added to the wells. Cells without peptides were the negative control and 1% DMSO was the positive control. Cells were incubated for 3 h again at 37° C. with 5% CO2.

[1] = test system: human red blood cells (hRBC); assay: Haemolysis of human red blood cells; conditions: at 2500 μg/ml, 3 h
Description: Peptides were tested for their haemolytic activity against human red blood cells (hRBC). Fresh hRBCs collected in BD Vacutainer® tubes with EDTA were rinsed 3 times with PBS (pH 7.4) by centrifugation for 10 min at 800 g and resuspended, 1 in 10 diluted with PBS. […] Release of haemoglobin was then calculated by transferring supernatant to a flat bottomed 96-well plate and measuring absorbance at 578 nm. hRBCs with no peptides added and H2O provided the controls.

C. albicans SC5314 [2] = format: cell-based
Description: 1×RPMI-1640 Buffered with Citrate Phosphate Buffer
Citrate phosphate buffer was prepared by mixing 0.1 M citric acid and 0.2 M dibasic sodium phosphate dodecahydrate in the proportions indicated in the Table 2 and the volume adjusted to 90 ml with dH2O.
pH buffered medium was prepared by dissolving 1.04 g RPMI-1640 premix powder in 10 ml citrate phosphate buffer. The volume was then adjusted to 40 ml with dH2O and the pH adjusted by addition of the acid or base. The volume was adjusted to 50 ml with dH2O. The medium was then filter sterilized by vacuum filtration through a 0.2 μm filter and stored at 4° C. and kept for up to 2 weeks.
The pH of RPMI-1640 was altered, using citrate phosphate buffer, to reflect the more acidic pH environment in the oral cavity. NP319 and NP377 were active against C. albicans SC5314 from pH 5.5-7.0 (Table 2). For all AMPs tested the optimum pH for activity was pH 5.5. NP377 maintained activity at 2 μg/ml from pH 5.5-7 with reduced activity at pH 5.

C. albicans SC5314 [3] = assay: MIC in the presence of 10% sterile filtered human saliva; format: cell-based
Description: AMPs of the same sequence length were tested versus C. albicans SC5314 in the presence of 10% (v/v) filtered human saliva at pH 7.0. Positive control is 1×RPMI-1640+cells, no peptide. Data is expressed as percentage of the positive growth controls. Data is the mean±standard error of the mean. (n=3)
Determination of Minimum Inhibitory Concentration (MIC) in Presence of Sterile Filtered Saliva
To test if saliva protease could result in a reduction in AMP antifungal activity against C. albicans, antifungal susceptibility testing was conducted in the presence of 10% (v/v) sterile filtered human saliva.

With `CCCCCCCCCCCCCCCC(=O)N[C@@H](CCCNC(=N)N)C(=O)N[C@@H](CCCNC(=N)N)C(=O)N[C@@H](CCCNC(=N)N)C(=O)N[C@@H](CCCNC(=N)N)C(=O)N[C@@H](CCCNC(=N)N)C(=O)N[C@@H](CCCNC(=N)N)C(=O)N[C@@H](CCCNC(=N)N)C(=O)N[C@@H](CCCNC(=N)N)C(=O)N[C@@H](CCCNC(=N)N)C(=O)N[C@@H](CCCNC(=N)N)C(=O)N[C@@H](CCCNC(=N)N)C(=O)N[C@@H](CCCNC(=N)N)C(=O)O` [C16-(Rx12)] as the compound, how does the CC50 at 3 h (in vitro) read?
Its CC50 at 3 h is 30 µg/mL (≈ 14.1 µM).

For `N=C(N)NCCC[C@H](NC(=O)[C@H](CCCNC(=N)N)NC(=O)[C@H](CCCNC(=N)N)NC(=O)[C@H](CCCNC(=N)N)NC(=O)[C@H](CCCNC(=N)N)NC(=O)[C@H](CCCNC(=N)N)NC(=O)[C@H](CCCNC(=N)N)NC(=O)[C@H](CCCNC(=N)N)NC(=O)[C@H](CCCNC(=N)N)NC(=O)[C@H](CCCNC(=N)N)NC(=O)[C@H](CCCNC(=N)N)NC(=O)[C@H](CCCNC(=N)N)NC(=O)[C@H](CCCNC(=N)N)NC(=O)[C@@H](N)CCCNC(=N)N)C(=O)O` [Rx14], which CC50 at 3 h (in vitro) is on record?
The CC50 at 3 h was greater than 2500 µg/mL.

What about the “Haemolysis RBCs % at 2500” value [1] of the same compound?
Its value is 0%.

With `N=C(N)NCCC[C@@H](N)C(=O)N[C@H](CCCNC(=N)N)C(=O)N[C@H](CCCNC(=N)N)C(=O)N[C@H](CCCNC(=N)N)C(=O)N[C@H](CCCNC(=N)N)C(=O)N[C@H](CCCNC(=N)N)C(=O)N[C@H](CCCNC(=N)N)C(=O)N[C@H](CCCNC(=N)N)C(=O)N[C@H](CCCNC(=N)N)C(=O)N[C@H](CCCNC(=N)N)C(=O)N[C@H](CCCNC(=N)N)C(=O)N[C@H](CCCNC(=N)N)C(=O)N[C@H](CCCNC(=N)N)C(=O)N[C@H](Cc1c[nH]cn1)C(=O)N[C@H](Cc1c[nH]cn1)C(N)=O` [NP377, dRdRdRdRdRdRdRdRdRdRdRdRdRdHdH-CONH] as the compound, how does the “concentration at which activity was maintained” value (C. albicans SC5314 [2]; from pH 5.5-7) read?
The value was 2 µg/mL.

And the MIC50 (C. albicans SC5314 [2]; pH 4.5)?
Its MIC50 is 32 µg/mL (≈ 13.8 µM).

And the MIC100 (C. albicans SC5314 [2]; pH 4.5)?
The MIC100 was greater than 64 µg/mL.

What about the MIC50 (C. albicans SC5314 [2]; pH 5) of the same compound?
Its MIC50 is 4 µg/mL (≈ 1.72 µM).

What about the MIC100 (C. albicans SC5314 [2]; pH 5) of the same compound?
The MIC100 was 8 µg/mL (≈ 3.45 µM).

And the MIC50 (C. albicans SC5314 [2]; pH 5.5)?
Its MIC50 is 1 µg/mL (≈ 0.431 µM).

What about the MIC100 (C. albicans SC5314 [2]; pH 5.5) of the same compound?
The MIC100 was 2 µg/mL (≈ 0.861 µM).

What about the MIC50 (C. albicans SC5314 [2]; pH 6) of the same compound?
The MIC50 was 2 µg/mL (≈ 0.861 µM).

And the MIC100 (C. albicans SC5314 [2]; pH 6)?
The MIC100 was 2 µg/mL (≈ 0.861 µM).

And the MIC50 (C. albicans SC5314 [2]; pH 6.5)?
Its MIC50 is 2 µg/mL (≈ 0.861 µM).

What about the MIC100 (C. albicans SC5314 [2]; pH 6.5) of the same compound?
Its MIC100 is 2 µg/mL (≈ 0.861 µM).

What about the MIC50 (C. albicans SC5314 [2]; pH 7) of the same compound?
The MIC50 was 2 µg/mL (≈ 0.861 µM).

What about the MIC100 (C. albicans SC5314 [2]; pH 7) of the same compound?
The MIC100 was 4 µg/mL (≈ 1.72 µM).

What about the MIC100 (C. albicans SC5314 [3]; 10% (v/v) sterile filtered human saliva, pH 7.0) of the same compound?
The MIC100 was 2 µg/mL.

And the “antifungal activity in the presence of filtered human saliva” value (C. albicans SC5314 [3]; filtered human saliva)?
Its value is “retain antifungal activity”.
